IC50 data for three molecules are collected here from PMC4290084, “Multiplex Imaging and Cellular Target Identification of Kinase Inhibitors via an Affinity-Based Proteome Profiling Approach” (Scientific Reports, 2015).

Test [1] has as its target T1, Aurora kinase A (AKA) (Homo sapiens, UniProt O14965).
T1 construct: gene AURKA; recombinant AKA
T1 sequence (O14965 1-403): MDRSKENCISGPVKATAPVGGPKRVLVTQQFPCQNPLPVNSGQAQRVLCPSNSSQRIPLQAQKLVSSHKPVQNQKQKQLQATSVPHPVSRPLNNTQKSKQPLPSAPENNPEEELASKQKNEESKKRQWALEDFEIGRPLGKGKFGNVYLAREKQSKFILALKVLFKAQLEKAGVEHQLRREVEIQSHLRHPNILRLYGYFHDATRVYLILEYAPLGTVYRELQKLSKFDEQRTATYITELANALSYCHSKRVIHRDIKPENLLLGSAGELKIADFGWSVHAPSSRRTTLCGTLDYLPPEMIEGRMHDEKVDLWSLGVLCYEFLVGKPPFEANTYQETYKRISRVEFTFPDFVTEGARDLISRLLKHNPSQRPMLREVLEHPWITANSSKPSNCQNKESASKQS
Briefly: Kinase-Glo in vitro kinase inhibition assay with recombinant AKA. Format: biochemical.

In test [2] the target is T1, Aurora kinase A (AKA). The test can be described thus: Kinase-Glo in vitro kinase inhibition assay with recombinant AKA; also photoaffinity labeling with PD/WB and IP in HeLa cells. The test is classed as biochemical. In general terms: Kinase-Glo reads ATP consumption through a luciferase reaction.

The IC50 is the concentration that inhibits the measured activity by half. Take `C#CCNC(=O)c1ccc(Nc2ncc3c(n2)-c2ccc(Cl)cc2C(c2c(F)cccc2OC)=NC3)cc1OC` [MLN-1]: the IC50 at Aurora kinase A (AKA) [1] came to 23.3 ± 0.5 nM.

With `C#CCCC1(CCNC(=O)c2ccc(Nc3ncc4c(n3)-c3ccc(Cl)cc3C(c3c(F)cccc3OC)=NC4)cc2OC)N=N1` [MLN-2], at Aurora kinase A (AKA) [2], the IC50 was determined as 15.1 ± 0.5 nM. Consider `COc1cc(Nc2ncc3c(n2)-c2ccc(Cl)cc2C(c2c(F)cccc2OC)=NC3)ccc1C(=O)NCCNC(=O)OC1CC/C=C/CCC1` (stereo not drawn) [MLN-3], for which the IC50 at Aurora kinase A (AKA) [1] was 67.2 ± 0.4 nM.
